Usually IC50 stands for the concentration at which inhibition is half-maximal.

The results in this text go back to US20190030114A1, “ISOFORM-SPECIFIC CALPAIN INHIBITORS, METHODS OF IDENTIFICATION, AND USES THEREOF” (WESTERN UNIVERSITY OF HEALTH SCIENCES, priority 2014, published 2019).

One assay has as its system SBDP. As to the kind of experiment: SBDP formation in IPL after acute IOP elevation, intravitreal C2l in calpain-1 KO mice. Format: in vivo. Conditions: Mus musculus, intravitreal (1 μl) 2 h after IOP elevation, SBDP at 4 h, read-out: apparent IC50, inhibition of SBDP formation in IPL. How it is done: We used intravitreal C2l injection in order to locally deliver C2l to retina. First, we tested the delivery efficiency by injecting different doses of C2l intravitreally 2 h after IOP elevation in calpain-1 KO mice and analyzing SBDP levels in IPL at 4 h (FIG. 12A and B). […] In all subsequent experiments, 20 μM (1 μl) was used to examine the neuroprotective effects of intravitreal C2l injection. Eyes were collected 3 days after surgery for H&E staining.

For another assay, the system named is retina (GCL, IPL). As to the kind of experiment: retinal damage induced by intravitreal NMDA injection, systemic (i.p.) inhibitor. The format is in vivo, mice. How it is done:
FIG. 8A: Representative images show H&E-stained ganglion cell and Plexiform layers of: i) naïve retina; ii) PBS-treated (intravitreally, 2 μI) or NMDA-treated (intravitreally, 2 μI of 2.5 mM) retina from wild-type mice that had been intraperitoneally injected with vehicle (20% DMSO), Formula I (C2l in the drawing, 0.3 mg/kg) or the pan-calpain inhibitor calpeptin (10 mg/kg) at 30 min before and 6 h after NMDA injection. H&E staining was done at 7 days after NMDA injection.
FIG. 8B: Quantitative analysis of cell number in the GCL of wild-type mice that had been injected intravitreally 7 days earlier with either 2 μI PBS or 2 μI NMDA (2.5 mM). The mice were intraperitoneally injected with vehicle (20% DMSO), a Formula I (C2l in the drawing, 0.3 mg/kg) or the pan-calpain inhibitor calpeptin (10 mg/kg) at 30 min before and 6 h after NMDA injection. Columns represent mean±S.E.M. n=4-6. *p<0.05; **p<0.01; ***p<0.001 versus NMDA plus vehicle-injected group. One-way ANOVA followed by Bonferroni test.
FIG. 8C: Quantitative analysis of thickness of the IPL of wild-type mice that had been injected intravitreally 7 days earlier with either 2 μI PBS or 2 μI NMDA (2.5 mM). The mice were intraperitoneally injected with vehicle (20% DMSO), Formula I (C2l in the drawing, 0.3 mg/kg) or the pan-calpain inhibitor calpeptin (10 mg/kg) at 30 min before and 6 h after NMDA injection.
FIG. 9A: Representative immunoblot of the levels of Spectrin breakdown products (SBDP), full-length PH domain and Leucine-rich repeat Protein Phosphatase 1 (PHLPP1)α and Akt in mouse retinal extracts 6 h after intravitreal injection of PBS (control) or NMDA (2 μI of 2.5 mM). Mice were injected i.p. with vehicle (10% DMSO) or C2l (0.3 mg/kg) 30 min before intravitreal injection.
FIG. 9B: Quantitation of ratios of SBDP/Akt, as determined in retinal extracts 6 h after NMDA or PBS injections. Data represent means±S.E.M. n=4. *p<0.05, ***p<0.001,. One-way ANOVA followed by Bonferroni test.
FIG. 9C: Quantitation of ratios of PHLPP1α/Akt, as determined in retinal extracts 6 h after NMDA or PBS injections. Data represent means±S.E.M. n=4. *p<0.05, ***p<0.001,. One-way ANOVA followed by Bonferroni test.
FIG. 9E: Quantitative analysis of cell number in the GCL from wild-type mice 7 days after NMDA-injection. Six sections cut through the optic disc from each eye were analyzed. Cell numbers in GCL at a distance between 500 and 1000 μm from the optic disc were counted. Cell densities from 6 sections from each eye were averaged.
FIG. 9F: Quantitative analysis of thickness of the IPL from wild-type mice 7 days after NMDA-injection. Six sections cut through the optic disc from each eye were analyzed. Cell numbers in GCL at a distance between 500 and 1000 μm from the optic disc were counted. Cell densities from 6 sections from each eye were averaged.
FIG. 9H: Quantitative analysis of cell number in the GCL from calpain-1 KO mice 7 days after NMDA-injection. Six sections cut through the optic disc from each eye were analyzed. Cell numbers in GCL at a distance between 500 and 1000 μm from the optic disc were counted. Cell densities from 6 sections from each eye were averaged. Data represent means±S.E.M. n=6. *p<0.05, **p<0.01, ***p<0.001, One-way ANOVA followed by Bonferroni test.
FIG. 9I: Quantitative analysis of thickness of the IPL of calpain-1 mice 7 days after NMDA-injection. Six sections cut through the optic disc from each eye were analyzed. Cell numbers in GCL at a distance between 500 and 1000 μm from the optic disc were counted. Cell densities from 6 sections from each eye were averaged. Data represent means±S.E.M. n=6. *p<0.05, **p<0.01, ***p<0.001, One-way ANOVA followed by Bonferroni test.
FIG. 9J: Comparison of GCL cell numbers in NMDA-treated WT and KO mice without and with C2l treatment. n=6. **p<0.01. Two-tailed t-test. […]

Setting [1] is: WT mice, i.p. 30 min before and 6 h after NMDA.
[2] abbreviates: calpain-1 KO mice, systemic injection.
Where [3] appears, read: i.p. 30 min before NMDA, 6 h after NMDA, WT mice.

Turning to `CCC(NC(=O)C(CC(C)C)NC(=O)OCc1ccccc1)C(=O)C(=O)NCc1cc(OC)cc(OC)c1` (racemic) [Formula 1, Z-Leu-Abu-CONH—CH2-C6H3 (3, 5-(OMe)2)], the IC50 with SBDP was found to be 8 µM. For the same compound, the NMDA-induced retinal damage result in the assay with retina (GCL, IPL) (0.3 mg/kg i.p. 30 min before and 6 h after NMDA, wild-type mice) is given as “protective against NMDA-induced retinal damage”. In addition, the “effect on GCL cell survival, KO versus WT mice” value with retina (GCL, IPL) (NMDA-treated) was “lower in KO mice than in WT mice”. Moreover, in the assay on retina (GCL, IPL) (setting [1]), the “NMDA-induced reduction in GCL cell density” value is recorded as “significantly suppressed the reduction” and the “NMDA-induced reduction in IPL thickness” value is reported as “significantly suppressed the reduction”. Further, in the assay with retina (GCL, IPL) (setting [2]), the “NMDA-induced decrease in GCL cell density” value is reported as “partially but significantly reversed” and the “NMDA-induced decrease in IPL thickness” value is reported as “partially but significantly reversed”. Besides, in the assay with retina (GCL, IPL) (setting [3]), the “NMDA-induced changes in PHLPP1 in retinal extracts” value is on record as “not” and the “NMDA-induced changes in SBDP in retinal extracts” value is “significantly suppressed”.
